Experiment [1] relates to Sweetpotato Whitefly Crawler (Bemisia Tabaci) (BEMITA). Put plainly: Bioassay on sweetpotato whitefly crawler, foliar spray on infested cotton plants. The experiment is classed as in vivo. The following applies: 200 ppm spray on cotton leaves, live nymphs counted after 8-9 days, Abbott's correction, read-out: BEMITA rating (% Control of Mortality). An excerpt:
Bioassays on Sweetpotato Whitefly Crawler (Bemisia Tabaci) (BEMITA.)
The sweetpotato whitefly, Bemisia tabaci (Gennadius), has been recorded in the United States since the late 1800s. In 1986 in Florida, Bemisia tabaci became an extreme economic pest. Whiteflies usually feed on the lower surface of their host plant leaves. From the egg hatches a minute crawler stage that moves about the leaf until it inserts its microscopic, threadlike mouthparts to feed by sucking sap from the phloem. Adults and nymphs excrete honeydew (largely plant sugars from feeding on phloem), a sticky, viscous liquid in which dark sooty molds grow. Heavy infestations of adults and their progeny can cause seedling death, or reduction in vigor and yield of older plants, due simply to sap removal. The honeydew can stick cotton lint together, making it more difficult to gin and therefore reducing its value. Sooty mold grows on honeydew-covered substrates, obscuring the leaf and reducing photosynthesis, and reducing fruit quality grade. It transmitted plant-pathogenic viruses that had never affected cultivated crops and induced plant physiological disorders, such as tomato irregular ripening and squash silverleaf disorder. Whiteflies are resistant to many formerly effective insecticides.
Cotton plants grown in 3-inch pots, with 1 small (3-5 cm) true leaf, were used at test substrate. The plants were placed in a room with whitely adults. Adults were allowed to deposit eggs for 2-3 days. After a 2-3 day egg-laying period, plants were taken from the adult whitefly room. Adults were blown off leaves using a hand-held Devilbliss sprayer (23 psi). Plants with egg infestation (100-300 eggs per plant) were placed in a holding room for 5-6 days at 82° F. and 50% RH for egg hatch and crawler stage to develop. Four cotton plants were used for each treatment. Compounds (2 mg) were dissolved in 1 mL of acetone solvent, forming stock solutions of 2000 ppm. The stock solutions were diluted 10× with 0.025% Tween 20 in water to obtain a test solution at 200 ppm. A hand-held Devilbliss sprayer was used for spraying a solution to both sides of cotton leaf until runoff. Reference plants (solvent check) were sprayed with the diluent only. Treated plants were held in a holding room for 8-9 days at approximately 82° F. and 50% RH prior to grading. Evaluation was conducted by counting the number of live nymphs per plant under a microscope.

Experiment [2] concerns Green Peach Aphid ("GPA") (Myzus Persicae) (MYZUPE). Put plainly: Bioassay on green peach aphid (GPA), foliar spray on infested cabbage seedlings. To be noted: 72 h, 200 ppm spray on cabbage leaves, live aphids counted after three days, Abbott's correction, read-out: MYZUPE rating (% Control of Mortality). It counts as in vivo. From the text: Bioassays on Green Peach Aphid (“GPA”) (Myzus Persicae) (MYZUPE.)
GPA is the most significant aphid pest of peach trees, causing decreased growth, shriveling of leaves, and the death of various tissues. It is also hazardous because it acts as a vector for the transport of plant viruses, such as potato virus Y and potato leafroll virus to members of the nightshade/potato family Solanaceae, and various mosaic viruses to many other food crops. GPA attacks such plants as broccoli, burdock, cabbage, carrot, cauliflower, daikon, eggplant, green beans, lettuce, macadamia, papaya, peppers, sweet potatoes, tomatoes, watercress and zucchini among other plants. GPA also attacks many ornamental crops such as carnations, chrysanthemum, flowering white cabbage, poinsettia and roses. GPA has developed resistance to many pesticides.
Several molecules disclosed herein were tested against GPA using procedures described below.
Cabbage seedling grown in 3-in pots, with 2-3 small (3-5 cm) true leaves, were used as test substrate. The seedlings were infested with […] (wingless adult and nymph stages) one day prior to chemical application. Four posts with individual seedlings were used for each treatment. Test compounds (2 mg) were dissolved in 2 mL of acetone/methanol (1:1) solvent, forming stock solutions of 1000 ppm test compound. The stock solutions were diluted 5× with 0.025% Tween 20 in water to obtain the solution at 200 ppm test compound. A hand-held aspirator-type sprayer was used for spraying a solution to both sides of the cabbage leaves until runoff. Reference plants (solvent check) were sprayed with the diluent only containing 20% by volume acetone/methanol (1:1) solvent. Treated plants were held in a holding room for three days at approximately 25° C. and ambient relative humidity (RH) prior to grading. Evaluation was conducted by counting the number of live aphids per plant under a microscope. Percent Control was measured by using Abbott's correction formula (W. S. Abbott, “A Method of Computing the Effectiveness of an Insecticide” J. Econ. Entomol 18 (1925), pp. 265-267) as follows.
Corrected % Control=100*(X−Y)/X • where • X=No. of live aphids on solvent check plants and • Y=No. of live aphids on treated plants
The results are indicated in the table entitled “Table 1: GPA (MYZUPE) and sweetpotato whitefly-crawler (BEMITA) Rating Table”.

For the compound `CCN(C(=O)CC[S+]([O-])CCC(F)(F)F)c1cn(-c2cccnc2)nc1Cl` (stereo not shown) [Compound 9.5, N-(3-Chloro-1-(pyridin-3-yl)-1H-pyrazol-4-yl)-N-ethyl-3-((3,3,3-trifluropropyl)sulfoxo)propanamide], the mortality at 200 ppm in experiment [1] and in experiment [2] was 80 to 100% in each case.
For `CCN(C(=O)CCSCCC(F)(F)F)c1cn(-c2cccnc2)nc1Cl` [Compound 8.5, N-(3-Chloro-1-(pyridin-3-yl)-1H-pyrazol-4-yl)-N-ethyl-3-((3,3,3-trifluropropyl)thio)propanamide], the mortality at 200 ppm in experiment [1] and in experiment [2] was 80 to 100% throughout.
Turning to `O=C(CCSCCC(F)(F)F)Nc1cn(-c2cccnc2)nc1Cl` [Compound 5.5, N-(3-Chloro-1-(pyridin-3-yl)-1H-pyrazol-4-yl)-3-((3,3,3-trifluoropropyl)thio)-propanamide], the values for the mortality at 200 ppm in experiment [1] and in experiment [2] were 0 to 80% and 80 to 100%, respectively.
Consider `ClC1=NN(c2cccnc2)CC1` [Compound 5a, 3-(3-Chloro-4,5-dihydro-1H-pyrazol-1-yl)pyridine], for which the mortality at 200 ppm in experiment [1] and in experiment [2] was 0 to 80% each time.
Consider `O=C(CCCl)Nc1cn(-c2cccnc2)nc1Cl` [Compound 5e, 3-Chloro-N-(3-chloro-1-(pyridine-3-yl)-1H-pyrazol-4-yl)propanamide], for which the mortality at 200 ppm in experiment [1] and in experiment [2] was 80 to 100% in each case.

By mortality is commonly meant the share of the test organisms that died.

These data come from patent publication US20170101392A1, “PROCESSES FOR THE PREPARATION OF PESTICIDAL COMPOUNDS” (Dow AgroSciences LLC, priority 2013, published 2017).
